Results published in ChEMBL document CHEMBL3872266, “Synthesis and characterization of novel, conjugated, fluorescent DNJ derivatives for α-glucosidase recognition” (Bioorg Med Chem, 2017).

What was measured:
[1] = Inhibition of rat small intestinal brush border membrane cellobiase assessed as reduction in production of D-glucose using disaccharides as substrate incubated for 10 to 30 mins
[2] = target: T1, Sucrase-isomaltase, intestinal (Rattus norvegicus, UniProt P23739); test: Inhibition of rat small intestinal brush border membrane isomaltase assessed as reduction in production of D-glucose using disaccharides as substrate incubated for 10 to 30 mins
T1 sequence (P23739 1-1013 limits assumed): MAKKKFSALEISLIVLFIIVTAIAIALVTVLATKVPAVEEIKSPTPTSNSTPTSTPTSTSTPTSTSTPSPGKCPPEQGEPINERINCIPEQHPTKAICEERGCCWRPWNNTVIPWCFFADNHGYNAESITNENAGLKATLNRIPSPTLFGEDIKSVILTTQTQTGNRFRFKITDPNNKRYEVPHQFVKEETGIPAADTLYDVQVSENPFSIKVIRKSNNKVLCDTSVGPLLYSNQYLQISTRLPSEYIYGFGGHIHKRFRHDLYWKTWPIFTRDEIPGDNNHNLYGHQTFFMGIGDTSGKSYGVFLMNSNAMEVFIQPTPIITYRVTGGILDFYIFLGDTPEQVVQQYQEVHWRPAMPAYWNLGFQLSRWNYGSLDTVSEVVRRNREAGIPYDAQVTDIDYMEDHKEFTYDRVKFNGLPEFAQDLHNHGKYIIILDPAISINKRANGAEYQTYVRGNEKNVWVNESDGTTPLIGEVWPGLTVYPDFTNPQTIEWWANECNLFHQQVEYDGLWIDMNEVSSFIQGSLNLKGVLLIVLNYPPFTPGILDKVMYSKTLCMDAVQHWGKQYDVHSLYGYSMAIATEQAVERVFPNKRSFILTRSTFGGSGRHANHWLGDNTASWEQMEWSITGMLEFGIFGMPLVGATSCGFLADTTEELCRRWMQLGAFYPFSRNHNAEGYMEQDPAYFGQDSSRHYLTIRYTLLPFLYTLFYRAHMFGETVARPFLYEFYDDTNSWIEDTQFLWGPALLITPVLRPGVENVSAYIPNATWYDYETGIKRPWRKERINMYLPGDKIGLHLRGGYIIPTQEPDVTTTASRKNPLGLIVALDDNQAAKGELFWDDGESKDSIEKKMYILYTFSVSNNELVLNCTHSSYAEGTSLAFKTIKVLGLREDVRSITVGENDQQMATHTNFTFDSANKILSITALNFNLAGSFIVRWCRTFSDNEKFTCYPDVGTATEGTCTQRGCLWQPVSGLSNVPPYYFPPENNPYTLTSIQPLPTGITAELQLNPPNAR
T1 sequence (P23739 1014-1841 limits assumed): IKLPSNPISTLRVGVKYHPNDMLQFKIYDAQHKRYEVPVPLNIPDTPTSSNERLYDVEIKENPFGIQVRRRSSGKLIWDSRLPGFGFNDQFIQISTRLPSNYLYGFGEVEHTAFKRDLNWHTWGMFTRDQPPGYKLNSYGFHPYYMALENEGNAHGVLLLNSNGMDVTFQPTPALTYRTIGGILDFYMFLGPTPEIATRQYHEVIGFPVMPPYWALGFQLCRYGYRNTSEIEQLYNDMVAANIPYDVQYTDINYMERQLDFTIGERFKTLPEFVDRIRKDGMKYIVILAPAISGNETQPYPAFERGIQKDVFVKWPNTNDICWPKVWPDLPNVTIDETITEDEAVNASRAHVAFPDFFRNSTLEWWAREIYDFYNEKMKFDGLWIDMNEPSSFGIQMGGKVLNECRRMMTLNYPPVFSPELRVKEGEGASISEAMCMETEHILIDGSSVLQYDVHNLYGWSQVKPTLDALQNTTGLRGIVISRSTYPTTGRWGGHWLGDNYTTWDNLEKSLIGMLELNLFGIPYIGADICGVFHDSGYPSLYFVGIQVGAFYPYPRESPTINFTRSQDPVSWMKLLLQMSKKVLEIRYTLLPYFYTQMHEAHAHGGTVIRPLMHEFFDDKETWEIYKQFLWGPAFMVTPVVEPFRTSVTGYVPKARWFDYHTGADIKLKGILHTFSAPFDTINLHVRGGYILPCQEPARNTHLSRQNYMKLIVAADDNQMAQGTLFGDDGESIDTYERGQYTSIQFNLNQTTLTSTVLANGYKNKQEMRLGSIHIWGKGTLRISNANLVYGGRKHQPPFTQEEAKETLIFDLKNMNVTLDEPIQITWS

[3] = Inhibition of rice alpha-glucosidase assessed as reduction in production of D-glucose using disaccharides as substrate incubated for 10 to 30 mins; set-up: species or system Oryza sativa
[4] = target: T1, Sucrase-isomaltase, intestinal; test: Inhibition of rat small intestinal brush border membrane sucrase assessed as reduction in production of D-glucose using disaccharides as substrate incubated for 10 to 30 mins
[5] = Inhibition of rat small intestinal brush border membrane maltase assessed as reduction in production of D-glucose using maltose as substrate incubated for 10 to 30 mins
[6] = Inhibition of almond beta-glucosidase assessed as reduction in production of D-glucose using disaccharides as substrate incubated for 10 to 30 mins; set-up: species or system Prunus dulcis

IC50 [1] [nM]	IC50 [2] [nM]	IC50 [3] [nM]	IC50 [4] [nM]	IC50 [5] [nM]	IC50 [6] [nM]	Structure (SMILES)
175000	6300	2100	2700	650		O=c1ccc2nc3ccc(OCCCCn4cc(CCCCN5C[C@H](O)[C@@H](O)[C@H](O)[C@H]5CO)nn4)cc3oc-2c1
304000	13600	110	1400	100		CCN(CC)c1ccc2cc(C(=O)NCCOCCOCCOCCn3cc(CCCCN4C[C@H](O)[C@@H](O)[C@H](O)[C@H]4CO)nn3)c(=O)oc2c1
53600	1400	42	540	150	9300	Cc1cc(=O)oc2cc(OCCCCn3cc(CCCCN4C[C@H](O)[C@@H](O)[C@H](O)[C@H]4CO)nn3)ccc12
414000	4600	91	1900	910	97800	CN(C)c1cccc2c(S(=O)(=O)NCCOCCn3cc(CCCCN4C[C@H](O)[C@@H](O)[C@H](O)[C@H]4CO)nn3)cccc12

Second part, the compound before the results:

Structure (SMILES)	IC50 [1] [nM]	IC50 [2] [nM]	IC50 [3] [nM]	IC50 [4] [nM]	IC50 [5] [nM]	IC50 [6] [nM]
O=c1cc(C(F)(F)F)c2ccc(OCCCCn3cc(CCCCN4C[C@H](O)[C@@H](O)[C@H](O)[C@H]4CO)nn3)cc2o1	219000	4100	57	950	540	3800
OC[C@H]1NC[C@H](O)[C@@H](O)[C@@H]1O [DUVOGLUSTAT]	327000		50			85000
OCCN1C[C@H](O)[C@@H](O)[C@H](O)[C@H]1CO [MIGLITOL]	164000		99		590	378000
